Results published in patent US20130261108A1, “COMPOSITIONS AND METHODS FOR MODULATING FARNESOID X RECEPTORS” (IRM LLC, priority 2010, published 2013).

Biological target: T1, human Farnesoid X Receptor (FXR) ligand binding domain (Homo sapiens, UniProt Q96RI1)
T1 construct: purchased Invitrogen
T1 sequence (Q96RI1 193-472 isoform Q96RI1-2): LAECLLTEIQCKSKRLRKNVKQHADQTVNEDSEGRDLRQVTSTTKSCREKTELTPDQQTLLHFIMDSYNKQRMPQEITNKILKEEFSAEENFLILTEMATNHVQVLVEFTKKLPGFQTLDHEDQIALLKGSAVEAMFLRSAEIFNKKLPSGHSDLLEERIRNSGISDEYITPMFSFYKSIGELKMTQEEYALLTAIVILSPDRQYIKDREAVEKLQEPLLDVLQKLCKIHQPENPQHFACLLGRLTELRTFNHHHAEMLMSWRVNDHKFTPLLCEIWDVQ
Assay: Human GST-FXR LBD co-activator interaction assay (FXR HTRF assay)
Assay type: biochemical
Details: GST-FXR LBD with biotin-labeled SRC-1 peptide, FRET/HTRF, 2.5 hours at room temperature; response relative to GW4064; read-out: FXR coactivator interaction assay (HTRF) (EC50)
Source text: Human GST-FXR LBD Co-Activator Interaction Assay.
The FXR HTRF assay is a biochemical assay measuring the interaction between FXR and a coactivator protein (SRC1). The ligand-induced interaction with a coactivator protein is a critical step in transcriptional activation by FXR. Thus, this is an assay designed to measure FXR agonist activity of compounds.
The ligand-dependent interaction between GST-FXR LBD and a peptide derived from Steroid Receptor Coactivator-1 (SRC-1) was monitored by Fluorescence Resonance Energy Transfer (FRET). […] Test compounds (in DMSO solution) and detection reagents (anti-GST-Cryptate labeled antibody and Streptavidin-XL665 conjugate; CisBio) were added in assay buffer containing 50 mM KF. Plates are incubated at room temperature in the dark for 2.5 hours before reading on an Envision (PerkinElmer) at 665 nm and 590 nm.
A negative control (without Streptavidin-XL665) was run with each assay and represented the background fluorescence. A reference FXR agonist, GW4064, was included in each experiment as positive control. The efficacy of each test compound was compared to that of GW4064. At each concentration, the relative activity of the test compound was expressed as Response %=(Rsample−RDMSO)/(Rpositive−RDMSO), where Rsample is the HTRF response (expressed in Delta F %) for the test compound, Rpositive is the maximal response for GW4064 at saturating concentrations, and RDMSO is the response for DMSO control. The EC50 values were calculated using GraphPad Prism (GraphPad Software) using non-linear regression curve fit (log(agonist) vs. response−variable slope (four parameters)).

Row | Structure (SMILES) | EC50 [nM]
1 | O=C(O)c1ccc2nc(N3CCC(OCc4c(C5CCCCC5C(F)(F)F)noc4C4CC4)CC3)sc2c1 (single isomer, unassigned) [5 (Diastereomer A)] | 245
2 | CCOC(=O)c1ccc2nc(N3CCC(OCc4c(-c5ccccc5OC(F)(F)F)noc4C4CC4)CC3)sc2c1 [Example 1-1A, Ethyl 2-(4-((5-cyclopropyl-3-(2-(trifluoromethoxy)phenyl)isoxazol-4-yl)methoxy)piperidin-1-yl)benzo[d]thiazole-6-carboxylate] | 929
3 | CCOC(=O)c1ccc2nc(N3CCC(OCc4c(-c5ccccc5OC(F)(F)F)noc4C4(C)CC4)CC3)sc2c1 [Example 2-2A, ethyl 2-(4-{[5-(1-methylcyclopropyl)-3-[2-(trifluoromethoxy)phenyl]-1,2-oxazol-4-yl]methoxy}piperidin-1-yl)-1,3-benzothiazole-6-carboxylate] | 1180
4 | CCOC(=O)c1ccc2nc(N3CCC(OCc4c(-c5ccccc5C(F)(F)F)noc4C4CC4)CC3)sc2c1 [Example 2-5A, ethyl 2-[4-({5-cyclopropyl-3-[2-(trifluoromethyl)phenyl]-1,2-oxazol-4-yl}methoxy)piperidin-1-yl]-1,3-benzothiazole-6-carboxylate] | 761
5 | CCOC(=O)c1ccc2nc(N3CCC(OCc4c(-c5c(Cl)cccc5C(F)(F)F)noc4C4CC4)CC3)sc2c1 [Example 2-6A, ethyl 2-[4-({3-[2-chloro-6-(trifluoromethyl)phenyl]-5-cyclopropyl-1,2-oxazol-4-yl}methoxy)piperidin-1-yl]-1,3-benzothiazole-6-carboxylate] | 396
6 | O=C(O)c1ccc2nc(N3CCC(OCc4c(-c5c(Cl)cccc5C(F)(F)F)noc4C4CC4)CC3)sc2c1 [Example 2-6B, 2-[4-({3-[2-chloro-6-(trifluoromethyl)phenyl]-5-cyclopropyl-1,2-oxazol-4-yl}methoxy)piperidin-1-yl]-1,3-benzothiazole-6-carboxylic acid] | 198
7 | CCOC(=O)c1ccc2nc(N3CCC(OCc4c(-c5c(OC)cccc5C(F)(F)F)noc4C4CC4)CC3)sc2c1 [Example 2-7A, ethyl 2-[4-({5-cyclopropyl-3-[2-methoxy-6-(trifluoromethyl)phenyl]-1,2-oxazol-4-yl}methoxy)piperidin-1-yl]-1,3-benzothiazole-6-carboxylate] | 736
8 | CCOC(=O)c1ccc2nc(N3CCC(OCc4c(-c5ccccc5OC(F)F)noc4C4CC4)CC3)sc2c1 [Example 2-8A, ethyl 2-[4-({5-cyclopropyl-3-[2-(difluoromethoxy)phenyl]-1,2-oxazol-4-yl}methoxy)piperidin-1-yl]-1,3-benzothiazole-6-carboxylate] | 2420
9 | CCOC(=O)c1ccc2nc(N3CCC(OCc4c(-c5c(F)cccc5Cl)noc4C4CC4)CC3)sc2c1 [Example 2-11A, ethyl 2-(4-{[3-(2-chloro-6-fluorophenyl)-5-cyclopropyl-1,2-oxazol-4-yl]methoxy}piperidin-1-yl)-1,3-benzothiazole-6-carboxylate] | 557

Molecules with a lower EC50, results first:

Row | EC50 [nM] | Structure (SMILES)
10 | 64 | O=C(O)c1ccc2nc(N3CCC(OCc4c(C5CCCCC5C(F)(F)F)noc4C4CC4)CC3)sc2c1 (single isomer, unassigned) [5 (Diastereomer B)]
11 | 12 | COc1cc(C(=O)O)cc2sc(N3CCC(OCc4c(-c5ccccc5OC(F)(F)F)noc4C4CC4)CC3)nc12 [Example 1-2, 2-(4-((5-cyclopropyl-3-(2-(trifluoromethoxy)phenyl)isoxazol-4-yl)methoxy)piperidin-1-yl)-4-methoxybenzo[d]thiazole-6-carboxylic acid]
12 | 17 | O=C(O)c1cc(F)c2nc(N3CCC(OCc4c(-c5ccccc5OC(F)(F)F)noc4C4CC4)CC3)sc2c1 [Example 1-3, 2-(4-((5-cyclopropyl-3-(2-(trifluoromethoxy)phenyl)isoxazol-4-yl)methoxy)piperidin-1-yl)-4-fluorobenzo[d]thiazole-6-carboxylic acid]
13 | 4 | COc1cc(C(=O)O)cc2sc(N3CCC(OCc4c(-c5ccccc5C(F)(F)F)noc4C4CC4)CC3)nc12 [Example 1-4, 2-(4-((5-cyclopropyl-3-(2-(trifluoromethyl)phenyl)isoxazol-4-yl)methoxy)piperidin-1-yl)-4-methoxybenzo[d]thiazole-6-carboxylic acid]
14 | 62 | O=C(O)c1ccc2sc(N3CCC(OCc4c(-c5ccccc5OC(F)(F)F)noc4C4CC4)CC3)nc2c1 [Example 2-1, 2-[4-({5-cyclopropyl-3-[2-(trifluoromethoxy)phenyl]-1,2-oxazol-4-yl}methoxy)piperidin-1-yl]1,3-benzothiazole-5-carboxylic acid]
15 | 98 | CC1(c2onc(-c3ccccc3OC(F)(F)F)c2COC2CCN(c3nc4ccc(C(=O)O)cc4s3)CC2)CC1 [Example 2-2B, 2-(4-{[5-(1-methylcyclopropyl)-3-[2-(trifluoromethoxy)phenyl]-1,2-oxazol-4-yl]methoxy}piperidin-1-yl)-1,3-benzothiazole-6-carboxylic acid]
16 | 24 | Cc1cc(C(=O)O)cc2sc(N3CCC(OCc4c(-c5ccccc5OC(F)(F)F)noc4C4CC4)CC3)nc12 [Example 2-3, 2-[4-({5-cyclopropyl-3-[2-(trifluoromethoxy)phenyl]-1,2-oxazol-4-yl}methoxy)piperidin-1-yl]-4-methyl-1,3-benzothiazole-6-carboxylic acid]
17 | 5 | O=C(O)c1cc(OC(F)(F)F)c2nc(N3CCC(OCc4c(-c5ccccc5OC(F)(F)F)noc4C4CC4)CC3)sc2c1 [Example 2-4, 2-[4-({5-cyclopropyl-3-[2-(trifluoromethoxy)phenyl]-1,2-oxazol-4-yl}methoxy)piperidin-1-yl]-4-(trifluoromethoxy)-1,3-benzothiazole-6-carboxylic acid]
18 | 86 | O=C(O)c1ccc2nc(N3CCC(OCc4c(-c5ccccc5C(F)(F)F)noc4C4CC4)CC3)sc2c1 [Example 2-5B, 2-[4-({5-cyclopropyl-3-[2-(trifluoromethyl)phenyl]-1,2-oxazol-4-yl}methoxy)piperidin-1-yl]-1,3-benzothiazole-6-carboxylic acid]
19 | 75 | COc1cccc(C(F)(F)F)c1-c1noc(C2CC2)c1COC1CCN(c2nc3ccc(C(=O)O)cc3s2)CC1 [Example 2-7B, 2-[4-({5-cyclopropyl-3-[2-methoxy-6-(trifluoromethyl)phenyl]-1,2-oxazol-4-yl}methoxy)piperidin-1-yl]-1,3-benzothiazole-6-carboxylic acid]
20 | 45 | O=C(O)c1ccc2nc(N3CCC(OCc4c(-c5ccccc5OC(F)F)noc4C4CC4)CC3)sc2c1 [Example 2-8B, 2-[4-({5-cyclopropyl-3-[2-(difluoromethoxy)phenyl]-1,2-oxazol-4-yl}methoxy)piperidin-1-yl]-1,3-benzothiazole-6-carboxylic acid]
21 | 26 | Cc1cc(C(=O)O)cc2sc(N3CCC(OCc4c(-c5ccccc5OC(F)F)noc4C4CC4)CC3)nc12 [Example 2-9, 2-[4-({5-cyclopropyl-3-[2-(difluoromethoxy)phenyl]-1,2-oxazol-4-yl}methoxy)piperidin-1-yl]-4-methyl-1,3-benzothiazole-6-carboxylic acid]
22 | 21 | O=C(O)c1cc(F)c2nc(N3CCC(OCc4c(-c5ccccc5OC(F)F)noc4C4CC4)CC3)sc2c1 [Example 2-10, 2-[4-({5-cyclopropyl-3-[2-(difluoromethoxy)phenyl]-1,2-oxazol-4-yl}methoxy)piperidin-1-yl]-4-fluoro-1,3-benzothiazole-6-carboxylic acid]
